No end group written: not given here.
Test system: YK-EC (HLA-A2-restricted CTL cell line) with HLA-A0201-positive T2 cells
Assay: IFN-γ production by YK-EC incubated with peptide-pulsed T2 cells (ELISA)
Type: cell-based, human
Conditions: 2×10^4 T2 cells pulsed with peptide at 10 μM over 2 hours, incubated with 1×10^5 YK-EC for 18 hours; IFN-γ in supernatant by ELISA; non peptide control 6.5
Description: Specifically, 10^4 of VA-13 cells were placed in each well of 96-well microplate, and incubated in RPMI 1640 medium containing 10% FCS. VA-13 cells were doubly transfected with 30 μl mixture consisting of 100 ng of the recombinant plasmid for HLA-A0201 cDNA and 100 ng of 6DI by using Lipofectin reagent (GIBCO BRL). Transfectants were prepared in duplicate. After 5-hour-incubation, 200 μl of culture medium was added to the transfectants, and the incubation continued for 72 hours. The culture medium was removed and 2×10^4 YK-EC were added, which was followed by cultivation for 18 to 24 hours. The culture medium was recovered, and the amount of IFN-γ was measured by ELISA. Specifically, an anti-humnan IFN-γ mouse monoclonal antibody was allowed to adsorb on wells of 96-well microplate to provide a solid-phased antibody. After blocking non-specific bindings with bovine serum albumin, the solid-phased antibody was allowed to bind with IFN-γ in the test sample. Anti-human IFN-γ rabbit polyclonal antibody as a detection antibody was then allowed to bind, which was followed by binding with an anti-rabbit immunoglobulin goat antibody (Amersham) labeled with alkaline phosphatase. The plate was subjected to color development reaction with peroxdase color development kit T (Sumitomo Bakelite), and measurement of absorbance at 405 nm. The absorbance was compared with that obtained with standard IFN-γ to determine the amount of IFN-γ. In the control experiments, the following three groups of cells were treated in the same manner: cells without transfection (non-treated group); cells transfected with recombinant plasmid 6DI alone; and cells transfected with solely recombinant plasmid containing HLA-A201 cDNA. To 2×10^4 T2 cells (Immunogenetics, 21:235,1985), which cell is an HLA-A0201-positive T-B hybridoma cell line but lacks the ability to present endogenous peptides, were added each of six peptides prepared in Example 3 at 10 μM over 2 hours. After incubating with 1×10^5 YK-EC for 18 hours, the amount of IFN-γ in supernatant produced by YK-EC was measured by ELISA in the same manner as described in Example 2.

Sequence	Amount of INF-γ produced by YK-EC
AQKTPYIVL [778-786]	105.4 pg/mL
LLETTVQKV [650-658]	118.1 pg/mL
LLLCQNKGL [642-650]	109.1 pg/mL
LLLCQNKGLL [642-651]	112.4 pg/mL
RVKAPNKSL [660-668]	71.1 pg/mL
YVDETGRKL [712-720]	86.1 pg/mL

From patent publication US6664232B1, “HLA-A2 restraint tumor antigen peptide originating in SART-1” (Kyogo Itoh, priority 1998, dated 2003)
